Assay results taken from patent US12312359B2 (Vitae Pharmaceuticals, LLC, priority 2016, dated 2025).

Key:
[1] = tested on: human acute monocytic leukemia cell line MV-4-11; assay: Assay 2: cell proliferation assay (ATP quantitation, CellTiter-Glo), MV-4-11; type: cell-based; conditions: MV-4-11 cells
Procedure, shortened: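 Read-out is CellTiter-Glo luminescence quantifying ATP. Compound exposure lasted 72 h at 37° C., 5% CO2, with 1.67×10^4 MV-4-11 cells per well in 10% FBS medium, alongside HL-60 toxicity-control cells.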

[2] = target: T1, biotinylated wild-type menin and MLL-AF9 fusion protein (menin/MLL binding) (Homo sapiens, UniProt O00255); assay: Assay 1: menin/MLL binding AlphaLISA assay, wild-type menin; conditions: Table 30; column head does not say wild-type or mutated menin
T1 construct: made in house; host or cells: menin: E. coli; MLL-AF9-FLAG: HEK293 cells, used as cleared lysate
T1 sequence (O00255 1-610): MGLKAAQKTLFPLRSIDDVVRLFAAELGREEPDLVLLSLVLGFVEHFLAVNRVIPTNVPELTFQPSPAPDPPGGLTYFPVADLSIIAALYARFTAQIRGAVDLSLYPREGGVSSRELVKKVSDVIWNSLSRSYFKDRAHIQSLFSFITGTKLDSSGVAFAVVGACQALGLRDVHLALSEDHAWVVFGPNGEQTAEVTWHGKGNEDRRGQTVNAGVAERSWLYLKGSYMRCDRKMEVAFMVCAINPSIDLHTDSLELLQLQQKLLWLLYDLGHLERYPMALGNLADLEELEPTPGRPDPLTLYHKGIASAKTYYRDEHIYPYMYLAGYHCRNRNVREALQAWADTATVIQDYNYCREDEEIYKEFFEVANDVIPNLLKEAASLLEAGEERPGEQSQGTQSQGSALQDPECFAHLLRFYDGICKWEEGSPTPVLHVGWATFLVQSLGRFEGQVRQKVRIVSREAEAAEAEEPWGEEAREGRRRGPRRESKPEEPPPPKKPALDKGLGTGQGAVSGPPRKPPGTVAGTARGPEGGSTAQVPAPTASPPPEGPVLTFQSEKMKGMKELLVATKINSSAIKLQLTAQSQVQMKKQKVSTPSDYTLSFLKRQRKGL
Procedure, shortened: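 Compound was preincubated 30 min at room temperature with biotinylated menin (5 nM) and MLL-AF9-FLAG lysate from HEK293 cells, pH 7.4 buffer with 5% DMSO and DTT. Bead-based Alpha signal after 60 min with streptavidin donor and anti-FLAG acceptor beads; four-parameter logistic fit gave IC50.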

Row | EC50 ([1]; Homo sapiens, MV4-11, 72 h) | IC50 [2] | EC50 ([1]; 72 h) | SMILES
1 | < 100 nM | < 100 nM | – | CCN(C(=O)C(C)C)c1cc(F)ccc1Oc1cncnc1N1CC2(CCN(C[C@H]3CC[C@H](NS(C)(=O)=O)CC3)CC2)C1 [Example 86, N-ethyl-N-(5-fluoro-2-((4-(7-(((1r,4r)-4-(methylsulfonamido)cyclohexyl)methyl)-2,7-diazaspiro [3.5]nonan-2-yl)pyrimidin-5-yl)oxy)phenyl)iso-butyramide]
2 | < 100 nM | < 100 nM | – | CCN(C(=O)C(C)C)c1cc(F)ccc1Oc1cncnc1N1CC2(CCN(C[C@H]3CC[C@H](NC(=O)OC(C)(C)C)CC3)CC2)C1 [Example 84, tert-butyl ((1r,4r)-4-((2-(5-(2-(N-ethylisobutyramido)-4-fluorophenoxy)pyrimidin-4-yl)-2,7-diazaspiro[3.5]nonan-7-yl)methyl)cyclohexyl) carbamate]
3 | 100 to 1000 nM | < 100 nM | – | CC(C)Cc1cc(F)ccc1Oc1cncnc1N1CCC2(CCN(Cc3ccc4[nH]c(=O)[nH]c4c3)C2)C1 (centres unmarked) [Example 236, 5-((7-(5-(4-fluoro-2-isobutylphenoxy)pyrimidin-4-yl)-2,7-diazaspiro[4.4]nonan-2-yl)methyl)-1,3-dihydro-2H-benzo[d]imidazol-2-one]
4 | < 100 nM | < 100 nM | – | CC(CO)c1ccccc1-c1cc(F)ccc1Oc1cncnc1N1CCC2(CCN(Cc3ccc4[nH]c(=O)[nH]c4c3)C2)C1 (centres unmarked) [Example 69, 5-((7-(5-((5-fluoro-2′-(1-hydroxypropan-2-yl)-[1,1′-biphenyl]-2-yl)oxy)pyrimidin-4-yl)-2,7-diazaspiro[4.4]nonan-2-yl)methyl)-1H-benzo[d]imidazol-2(3H)-one]
5 | < 100 nM | < 100 nM | – | CC(C)c1ccccc1-c1cc(F)ccc1Oc1cncnc1N1CC2(CN(CC3CCOCC3)C2)C1 [Example 237A, 2-(5-((5-fluoro-2′-isopropyl-[1,1′-biphenyl]-2-yl)oxy)pyrimidin-4-yl)-6-((tetrahydro-2H-pyran-4-yl)methyl)-2,6-diazaspiro[3.3] heptane]
6 | < 100 nM | < 100 nM | – | CC(C)c1ccccc1-c1cc(F)ccc1Oc1cncnc1N1CCC2(CCN(Cc3ccc4[nH]c(=O)[nH]c4c3)C2)C1 (centres unmarked) [Example 41, 5-((7-(5-((5-fluoro-2′-isopropyl-[1,1′-biphenyl]-2-yl)oxy)pyrimidin-4-yl)-2,7-diazaspiro[4.4]nonan-2-yl)methyl)-1H-benzo[d]imidazol-2(3H)-one]
7 | < 100 nM | < 100 nM | – | CCN(C(=O)C(C)C)c1cc(F)ccc1Oc1cncnc1N1CC2(CN(CC3CCCCC3)C2)C1 [Example 106, N-(2-((4-(6-(cyclohexylmethyl)-2,6-diazaspiro[3.3]heptan-2-yl)pyrimidin-5-yl)oxy)-5-fluoro-phenyl)-N-ethylisobutyramide]
8 | 100 to 1000 nM | < 100 nM | – | CC(C)N(C(=O)c1cc(F)ccc1Oc1cncnc1N1CC2(CCN(CC3CCC4(CC3)OCCO4)CC2)C1)C(C)C [Example 100, 2-((4-(7-((1,4-dioxaspiro[4.5]decan-8-yl)methyl)-2,7-diazaspiro[3.5]nonan-2-yl)pyrimidin-5-yl)oxy)-5-fluoro-N,N-diisopropylbenzamide]
9 | 100 to 1000 nM | < 100 nM | – | N#Cc1ccc(-c2cc(F)ccc2Oc2cncnc2N2CC3(CN(CC4(O)CCOCC4)C3)C2)c(C2CC2)c1 [Example 214, 2-cyclopropyl-5′-fluoro-2′-((4-(6-((4-hydroxytetrahydro-2H-pyran-4-yl)methyl)-2,6-diazaspiro[3.3]heptan-2-yl)pyrimidin-5-yl)oxy)-[1,1′-biphenyl]-4-carbonitrile]
10 | 100 to 1000 nM | < 100 nM | – | CC1CCC(C)N1C(=O)c1cc(F)ccc1Oc1cncnc1N1CCC2(CCN(Cc3ccc4[nH]c(=O)[nH]c4c3)C2)C1 (centres unmarked) [Example 153, 5-((7-(5-(2-(2,5-dimethylpyrrolidine-1-carbonyl)-4-fluorophenoxy)pyrimidin-4-yl)-2,7-diazaspiro[4.4]nonan-2-yl)methyl)-1,3-dihydro-2H-benzo[d]imidazol-2-one]
11 | 100 to 1000 nM | < 100 nM | – | CC(C)N(C(=O)c1cc(F)ccc1Oc1cncnc1N1CC2(CCN(CC3CCC(O)CC3)C2)C1)C(C)C (centres unmarked) [Example 99, 5-fluoro-2-((4-(6-((4-hydroxycyclohexyl)methyl)-2,6-diazaspiro[3.4]octan-2-yl)pyrimidin-5-yl)oxy)-N,N-diisopropylbenzamide]
12 | 100 to 1000 nM | < 100 nM | – | COC(=O)N[C@H]1CC[C@H](CN2CCC3(CC2)CN(c2ncncc2Oc2ccc(F)cc2C(=O)N(C)C(C)C)C3)CC1 [Example 95, methyl ((1r,4r)-4-((2-(5-(4-fluoro-2-(isopropyl(methyl)carbamoyl)phenoxy)pyrimidin-4-yl)-2,7-diazaspiro[3.5]nonan-7-yl)methyl)cyclohexyl) carbamate]
13 | – | < 100 nM | 100 to 1000 nM | CC(C)c1ncncc1-c1cc(F)ccc1Oc1cncnc1N1CC2(CC(NC3CCC(C)(C#N)CC3)C2)C1 (single isomer, unassigned) [Example 148B, 4-((2-(5-(4-fluoro-2-(4-isopropylpyrimidin-5-yl)phenoxy)pyrimidin-4-yl)-2-azaspiro[3.3]heptan-6-yl)amino)-1-methylcyclohexane carbonitrile]
14 | < 100 nM | < 100 nM | – | CC1(C)C(=O)Nc2cc(CN3CCC4(CCN(c5ncncc5Oc5ccc(F)cc5OC5CCCC5)C4)C3)ccc21 (centres unmarked) [Example 193, 6-((7-(5-(2-(cyclopentyloxy)-4-fluorophenoxy)pyrimidin-4-yl)-2,7-diazaspiro[4.4]nonan-2-yl)methyl)-3,3-dimethylindolin-2-one]
15 | ≥ 1000 nM | < 100 nM | – | CC(C)C(O)c1cc(F)ccc1Oc1cncnc1N1CCC2(CCN(Cc3ccc4c(c3)NC(=O)C4(C)C)C2)C1 (centres unmarked) [Example 10, 6-((7-(5-(4-fluoro-2-(1-hydroxy-2-methylpropyl)phenoxy)pyrimidin-4-yl)-2,7-diazaspiro[4.4]nonan-2-yl)methyl)-3,3-dimethylindolin-2-one]
16 | ≥ 1000 nM | < 100 nM | – | CNC(=O)C1CC1c1cc(F)ccc1Oc1cncnc1N1CCC2(CCN(Cc3ccc4[nH]c(=O)[nH]c4c3)C2)C1 (centres unmarked) [Example 38, 2-(5-fluoro-2-((4-(7-((2-oxo-2,3-dihydro-1H-benzo[d]imidazol-5-yl)methyl)-2,7-diazaspiro[4.4]nonan-2-yl)pyrimidin-5-yl)oxy)phenyl)-N-methylcyclopropane carboxamide]
17 | 100 to 1000 nM | < 100 nM | – | O=C(c1cc(F)ccc1Oc1cncnc1N1CCC2(CCN(Cc3ccc4[nH]c(=O)[nH]c4c3)C2)C1)N1CCOCC1 (centres unmarked) [Example 155, 5-((7-(5-(4-fluoro-2-(morpholine-4-carbonyl)phenoxy)pyrimidin-4-yl)-2,7-diaza-spiro[4.4]nonan-2-yl)methyl)-1,3-dihydro-2H-benzo[d]imidazol-2-one]
18 | 100 to 1000 nM | < 100 nM | – | CC(C)c1ncncc1-c1cc(F)ccc1Oc1cncnc1N1CC2(CC(NCC3CCCCC3)CO2)C1 (centres unmarked) [Example 184, N-(cyclohexylmethyl)-2-(5-(4-fluoro-2-(4-isopropylpyrimidin-5-yl)phenoxy)pyrimidin-4-yl)-5-oxa-2-azaspiro[3.4]octan-7-amine]
19 | ≥ 1000 nM | < 100 nM | – | CC(C)c1ncncc1-c1cc(F)ccc1Oc1cncnc1N1CCC2(CCN(CC(C)(C)O)C2)C1 (centres unmarked) [Example 176, 1-(7-(5-(4-fluoro-2-(4-isopropylpyrimidin-5-yl)phenoxy)pyrimidin-4-yl)-2,7-diazaspiro[4.4]nonan-2-yl)-2-methylpropan-2-ol]
20 | 100 to 1000 nM | < 100 nM | – | CC(C)N(C)C(=O)c1cc(F)ccc1Oc1cncnc1N1CC2(CN(CC3CCOCC3)C2)C1 [Example 225, 5-fluoro-N-isopropyl-N-methyl-2-((4-(6-((tetrahydro-2H-pyran-4-yl)methyl)-2,6-diazaspiro[3.3]heptan-2-yl)pyrimidin-5-yl)oxy)benzamide]
21 | < 100 nM | < 100 nM | – | CC(C)N(C(=O)c1cc(F)ccc1Oc1cncnc1N1CCC2(CCN(Cc3ccc4c(c3)NC(=O)C4(C)C#N)C2)C1)C(C)C (centres unmarked) [Example 90, 2-((4-(7-((3-cyano-3-methyl-2-oxoindolin-6-yl)methyl)-2,7-diazaspiro[4.4]nonan-2-yl)pyrimidin-5-yl)oxy)-5-fluoro-N,N-diisopropylbenzamide]
22 | 100 to 1000 nM | < 100 nM | – | CC(C)N(C)C(=O)c1cc(F)ccc1Oc1cncnc1N1CCC2(CN(C(=O)Cc3ccc(C#N)cc3)C2)C1 [Example 127, 2-((4-(2-(2-(4-cyanophenyl)acetyl)-2,6-diazaspiro[3.4]octan-6-yl)pyrimidin-5-yl)oxy)-5-fluoro-N-isopropyl-N-methylbenzamide]
